According to the supplement of paper PMC10307832:

Columns and labels:
Assay in all cases: relative viability (nuclei count vs DMSO), 5 days (fraction); higher = more cells survive
AZ628 + Linsitinib = compound: CC1=C(C=C(C=C1)NC(=O)C2=CC(=CC=C2)C(C)(C)C#N)NC3=CC4=C(C=C3)N=CN(C4=O)C [AZ628] + C[C@]1(O)C[C@@H](c2nc(-c3ccc4ccc(-c5ccccc5)nc4c3)c3c(N)nccn32)C1 [Linsitinib] (partner 1 µM)
Method in brief: (§1)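 Medians of duplicate plates are given as relative viability. That measure is the nuclei count in treated wells divided by the count in vehicle wells. Counts were taken on 4× images of lung cancer cell lines in 1536-well plates, 5 days after pin-tool dosing the day after seeding with one drug alone or a fixed anchor-drug dose plus five library-drug doses (not always all listed) in √10 steps.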

Darinaparsin + OSI-027 = compound: C[As](C)SC[C@H](NC(=O)CC[C@H](N)C(=O)O)C(=O)NCC(=O)O [Darinaparsin] + COc1cccc2cc(-c3nc([C@H]4CC[C@H](C(=O)O)CC4)n4ncnc(N)c34)[nH]c12 [OSI-027] (partner 0.5 µM)
Method in brief: as §1

Darinaparsin + AZD7762 = compound: C[As](C)SC[C@H](NC(=O)CC[C@H](N)C(=O)O)C(=O)NCC(=O)O [Darinaparsin] + NC(=O)Nc1cc(-c2cccc(F)c2)sc1C(=O)N[C@H]1CCCNC1 [AZD7762] (partner 0.2 µM)
Method in brief: as §1

[1] = compound: C[As](C)SC[C@H](NC(=O)CC[C@H](N)C(=O)O)C(=O)NCC(=O)O [Darinaparsin] + Nc1nc2[nH]cc(CCc3ccc(C(=O)N[C@@H](CCC(=O)O)C(=O)O)cc3)c2c(=O)[nH]1 [Pemetrexed] (partner 0.2 µM)
Method in brief: as §1

201T
relative viability (AZ628 + Linsitinib; first compound 0.08 µM): 1.06 | relative viability (AZ628 + Linsitinib; first compound 0.253 µM): 0.978 | relative viability (AZ628 + Linsitinib; first compound 0.8 µM): 1.07 | relative viability (AZ628 + Linsitinib; first compound 2.53 µM): 1 | relative viability (AZ628 + Linsitinib; first compound 8 µM): 0.998 | relative viability (Darinaparsin + OSI-027; first compound 0.08 µM): 0.963 | relative viability (Darinaparsin + OSI-027; first compound 0.8 µM): 0.701 | relative viability (Darinaparsin + OSI-027; first compound 8 µM): 0.93 | relative viability (Darinaparsin + AZD7762; first compound 0.08 µM): 0.707 | relative viability (Darinaparsin + AZD7762; first compound 0.8 µM): 0.669 | relative viability (Darinaparsin + AZD7762; first compound 2.53 µM): 0.527 | relative viability (Darinaparsin + AZD7762; first compound 8 µM): 0.658 | relative viability ([1]; first compound 0.08 µM): 0.374 | relative viability ([1]; first compound 0.8 µM): 0.33 | relative viability ([1]; first compound 2.53 µM): 0.33 | relative viability ([1]; first compound 8 µM): 0.363

A-427
relative viability (AZ628 + Linsitinib; first compound 0.08 µM): 1 | relative viability (AZ628 + Linsitinib; first compound 0.253 µM): 0.898 | relative viability (AZ628 + Linsitinib; first compound 0.8 µM): 0.839 | relative viability (AZ628 + Linsitinib; first compound 2.53 µM): 0.857 | relative viability (AZ628 + Linsitinib; first compound 8 µM): 0.496 | relative viability (Darinaparsin + OSI-027; first compound 0.08 µM): 0.424 | relative viability (Darinaparsin + OSI-027; first compound 0.8 µM): 0.445 | relative viability (Darinaparsin + OSI-027; first compound 2.53 µM): 0.466 | relative viability (Darinaparsin + OSI-027; first compound 8 µM): 0.582 | relative viability (Darinaparsin + AZD7762; first compound 0.08 µM): 0.696 | relative viability (Darinaparsin + AZD7762; first compound 0.8 µM): 0.681 | relative viability (Darinaparsin + AZD7762; first compound 2.53 µM): 0.747 | relative viability (Darinaparsin + AZD7762; first compound 8 µM): 0.589 | relative viability ([1]; first compound 0.08 µM): 1.06 | relative viability ([1]; first compound 0.8 µM): 0.934 | relative viability ([1]; first compound 2.53 µM): 1.1 | relative viability ([1]; first compound 8 µM): 1.02

BEN
relative viability (AZ628 + Linsitinib; first compound 0.08 µM): 1.1 | relative viability (AZ628 + Linsitinib; first compound 0.253 µM): 0.864 | relative viability (AZ628 + Linsitinib; first compound 0.8 µM): 0.793 | relative viability (AZ628 + Linsitinib; first compound 2.53 µM): 0.903 | relative viability (AZ628 + Linsitinib; first compound 8 µM): 0.772 | relative viability (Darinaparsin + OSI-027; first compound 0.08 µM): 0.312 | relative viability (Darinaparsin + OSI-027; first compound 0.8 µM): 0.306 | relative viability (Darinaparsin + OSI-027; first compound 2.53 µM): 0.281 | relative viability (Darinaparsin + OSI-027; first compound 8 µM): 0.299 | relative viability (Darinaparsin + AZD7762; first compound 0.08 µM): 0.691 | relative viability (Darinaparsin + AZD7762; first compound 0.8 µM): 0.729 | relative viability (Darinaparsin + AZD7762; first compound 2.53 µM): 0.648 | relative viability (Darinaparsin + AZD7762; first compound 8 µM): 0.797 | relative viability ([1]; first compound 0.08 µM): 0.873 | relative viability ([1]; first compound 0.8 µM): 0.848 | relative viability ([1]; first compound 2.53 µM): 0.818 | relative viability ([1]; first compound 8 µM): 0.859

CAL-12T
relative viability (AZ628 + Linsitinib; first compound 0.08 µM): 0.788 | relative viability (AZ628 + Linsitinib; first compound 0.253 µM): 0.677 | relative viability (AZ628 + Linsitinib; first compound 0.8 µM): 0.585 | relative viability (AZ628 + Linsitinib; first compound 2.53 µM): 0.679 | relative viability (AZ628 + Linsitinib; first compound 8 µM): 0.357 | relative viability (Darinaparsin + OSI-027; first compound 0.08 µM): 0.756 | relative viability (Darinaparsin + OSI-027; first compound 0.8 µM): 0.539 | relative viability (Darinaparsin + OSI-027; first compound 2.53 µM): 0.737 | relative viability (Darinaparsin + OSI-027; first compound 8 µM): 0.569 | relative viability (Darinaparsin + AZD7762; first compound 0.08 µM): 0.773 | relative viability (Darinaparsin + AZD7762; first compound 0.8 µM): 0.541 | relative viability (Darinaparsin + AZD7762; first compound 2.53 µM): 0.694 | relative viability (Darinaparsin + AZD7762; first compound 8 µM): 0.648 | relative viability ([1]; first compound 0.08 µM): 1.65 | relative viability ([1]; first compound 0.8 µM): 1.08 | relative viability ([1]; first compound 2.53 µM): 1.17 | relative viability ([1]; first compound 8 µM): 1.38

EKVX
relative viability (AZ628 + Linsitinib; first compound 0.08 µM): 1.18 | relative viability (AZ628 + Linsitinib; first compound 0.253 µM): 0.922 | relative viability (AZ628 + Linsitinib; first compound 0.8 µM): 1 | relative viability (AZ628 + Linsitinib; first compound 2.53 µM): 1.03 | relative viability (AZ628 + Linsitinib; first compound 8 µM): 0.824 | relative viability (Darinaparsin + OSI-027; first compound 0.08 µM): 0.723 | relative viability (Darinaparsin + OSI-027; first compound 0.8 µM): 0.604 | relative viability (Darinaparsin + OSI-027; first compound 2.53 µM): 0.752 | relative viability (Darinaparsin + OSI-027; first compound 8 µM): 0.833 | relative viability (Darinaparsin + AZD7762; first compound 0.08 µM): 0.817 | relative viability (Darinaparsin + AZD7762; first compound 0.8 µM): 0.739 | relative viability (Darinaparsin + AZD7762; first compound 2.53 µM): 0.726 | relative viability (Darinaparsin + AZD7762; first compound 8 µM): 0.82 | relative viability ([1]; first compound 0.08 µM): 0.458 | relative viability ([1]; first compound 0.8 µM): 0.385 | relative viability ([1]; first compound 2.53 µM): 0.388 | relative viability ([1]; first compound 8 µM): 0.412

EMC-BAC-2
relative viability (AZ628 + Linsitinib; first compound 0.08 µM): 0.77 | relative viability (AZ628 + Linsitinib; first compound 0.253 µM): 0.723 | relative viability (AZ628 + Linsitinib; first compound 0.8 µM): 0.782 | relative viability (AZ628 + Linsitinib; first compound 2.53 µM): 0.744 | relative viability (AZ628 + Linsitinib; first compound 8 µM): 0.762 | relative viability (Darinaparsin + OSI-027; first compound 0.08 µM): 0.364 | relative viability (Darinaparsin + OSI-027; first compound 0.8 µM): 0.315 | relative viability (Darinaparsin + OSI-027; first compound 2.53 µM): 0.405 | relative viability (Darinaparsin + OSI-027; first compound 8 µM): 0.409 | relative viability (Darinaparsin + AZD7762; first compound 0.08 µM): 1.18 | relative viability (Darinaparsin + AZD7762; first compound 0.8 µM): 1.04 | relative viability (Darinaparsin + AZD7762; first compound 2.53 µM): 1.28 | relative viability (Darinaparsin + AZD7762; first compound 8 µM): 1.26 | relative viability ([1]; first compound 0.08 µM): 0.452 | relative viability ([1]; first compound 0.8 µM): 0.44 | relative viability ([1]; first compound 2.53 µM): 0.53 | relative viability ([1]; first compound 8 µM): 0.472

EPLC-272H
relative viability (AZ628 + Linsitinib; first compound 0.08 µM): 1.26 | relative viability (AZ628 + Linsitinib; first compound 0.253 µM): 1.13 | relative viability (AZ628 + Linsitinib; first compound 0.8 µM): 1.12 | relative viability (AZ628 + Linsitinib; first compound 2.53 µM): 1.08 | relative viability (AZ628 + Linsitinib; first compound 8 µM): 0.834 | relative viability (Darinaparsin + OSI-027; first compound 0.8 µM): 0.285 | relative viability (Darinaparsin + OSI-027; first compound 2.53 µM): 0.243 | relative viability (Darinaparsin + OSI-027; first compound 8 µM): 0.321 | relative viability (Darinaparsin + AZD7762; first compound 0.08 µM): 0.206 | relative viability (Darinaparsin + AZD7762; first compound 0.8 µM): 0.176 | relative viability (Darinaparsin + AZD7762; first compound 2.53 µM): 0.117 | relative viability (Darinaparsin + AZD7762; first compound 8 µM): 0.215 | relative viability ([1]; first compound 0.08 µM): 0.319 | relative viability ([1]; first compound 0.8 µM): 0.292 | relative viability ([1]; first compound 2.53 µM): 0.321 | relative viability ([1]; first compound 8 µM): 0.293

H3255
relative viability (AZ628 + Linsitinib; first compound 0.08 µM): 0.965 | relative viability (AZ628 + Linsitinib; first compound 0.253 µM): 0.859 | relative viability (AZ628 + Linsitinib; first compound 0.8 µM): 0.965 | relative viability (AZ628 + Linsitinib; first compound 2.53 µM): 0.968 | relative viability (AZ628 + Linsitinib; first compound 8 µM): 0.737 | relative viability (Darinaparsin + OSI-027; first compound 0.08 µM): 0.607 | relative viability (Darinaparsin + OSI-027; first compound 0.8 µM): 0.543 | relative viability (Darinaparsin + OSI-027; first compound 2.53 µM): 0.618 | relative viability (Darinaparsin + OSI-027; first compound 8 µM): 0.547 | relative viability (Darinaparsin + AZD7762; first compound 0.08 µM): 0.858 | relative viability (Darinaparsin + AZD7762; first compound 0.8 µM): 0.915 | relative viability (Darinaparsin + AZD7762; first compound 2.53 µM): 0.797 | relative viability (Darinaparsin + AZD7762; first compound 8 µM): 1.05 | relative viability ([1]; first compound 0.08 µM): 0.576 | relative viability ([1]; first compound 0.8 µM): 0.587 | relative viability ([1]; first compound 2.53 µM): 0.522 | relative viability ([1]; first compound 8 µM): 0.54

HARA
relative viability (AZ628 + Linsitinib; first compound 0.08 µM): 0.774 | relative viability (AZ628 + Linsitinib; first compound 0.253 µM): 0.847 | relative viability (AZ628 + Linsitinib; first compound 0.8 µM): 0.888 | relative viability (AZ628 + Linsitinib; first compound 2.53 µM): 0.934 | relative viability (AZ628 + Linsitinib; first compound 8 µM): 0.309 | relative viability (Darinaparsin + OSI-027; first compound 0.08 µM): 0.68 | relative viability (Darinaparsin + OSI-027; first compound 0.8 µM): 0.502 | relative viability (Darinaparsin + OSI-027; first compound 2.53 µM): 0.54 | relative viability (Darinaparsin + OSI-027; first compound 8 µM): 0.572 | relative viability (Darinaparsin + AZD7762; first compound 0.08 µM): 0.417 | relative viability (Darinaparsin + AZD7762; first compound 2.53 µM): 0.335 | relative viability (Darinaparsin + AZD7762; first compound 8 µM): 0.371 | relative viability ([1]; first compound 0.08 µM): 0.269 | relative viability ([1]; first compound 2.53 µM): 0.22 | relative viability ([1]; first compound 8 µM): 0.294
